What was measured:
HuH7 xenografts = experiment: HSV1716 in combination with sorafenib in vivo in subcutaneous flank HuH7 xenografts; design: species or system nude mice
Protocol: Female 6-8 week old athymic nude mice (Charles River Labs, UK) were maintained under specific pathogen free conditions. Actively growing HuH7 cells were harvested and, after re-suspension in PBS, 1×10^6 cells per mouse were injected subcutaneously. Treatments were started when tumours reached 5 mm in diameter. Mice were inspected daily, when tumour diameters reached 15 mm they were sacrificed and the tumour xenograft removed for viral extraction. The viral load in tumours and various organs was assessed by plaque forming assay on Vero cells. Extracted intact tumours/organs were frozen immediately at −70° C. and, after thawing, the tissues were mechanically homogenized in a Retsch homogenizer in 1 ml PBS prior to titration.
Sorafenib for IP injections was obtained from Selleckchem UK, (S1040), and was reported as 100% pure. The dose was 10 mg/kg equivalent to 10 μg/g or 250 μg/mouse (25 g). The 0.1 ml intraperitoneal dose therefore required 250 μg/0.1 ml or 2.5 mg/ml. 50 mg sorafenib was dissolved in 0.5 ml DMSO and this was added to 19.5 ml PBS with 5% Tween80 and 5% PEG400 (both v/v). This is equivalent to c4 mM sorafenib. HSV1716gCluc which expresses luciferase from the HSV-1 gC promoter. The stock virus solution was 8×10^7 pfu/ml and 0.125 ml virus stock were added to 10 ml compound sodium lactate with 10% glycerol to give the injection solution at a titre of 1×10^6 pfu/ml. 0.1 ml injected it/mouse and is equivalent to 1×10^5 pfu.
In vivo combination with sorafenib and HSV1716 was analysed using the HuH7 subcutaneous xenograft HCC model in nude mice. Groups were—no treatment (n=10), sorafenib (n=6), HSV1716 (n=10), HSV1716 sorafenib (n=12). HSV1716gC-luc at 1×10^5 pfu was given on days 1, 3 and 9 and sorafenib at 10 mg/kg (Liu et al Cancer Res 2006; 66:11851-11858), was administered IP (Wang et al., Cancer Biol & Therapy 2011; 12:3, 229-238) every 2nd day from day 2 on 9 occasions. Virus was monitored by IVIS and tumour growth (FIG. 37) and survival (FIG. 38) were recorded.

HCC = settings: monotherapy of HCC; cited from earlier work

CNC(=O)c1cc(Oc2ccc(NC(=O)Nc3ccc(Cl)c(C(F)(F)F)c3)cc2)ccn1 [sorafenib, 4-[4-[[4-chloro-3-(trifluoromethyl)phenyl]carbamoylamino]phenoxy]-N-methyl-pyridine-2-carboxamide]
xenograft growth (HuH7 xenografts; HuH7 xenografts (FIG. 37)): inhibited | mouse survival (HuH7 xenografts; HuH7 xenografts (FIG. 38)): survived longer than controls | period in which no mice died (HuH7 xenografts; HuH7 xenografts (FIG. 38), virus 1×10^5 pfu days 1, 3, 9, sorafenib 10 mg/kg IP): about 4 days | prolongation of median survival and the time to progression (HCC): ~3 months | reduction of the risk of death during year 1 (HCC): 31%

Source: patent US20150125425A1, “TREATMENT OF LIVER CANCER” (priority 2012, published 2015)
